Data: US20200022963A1, “PHARMACEUTICAL COMPOSITION COMPRISING BETAHISTINE” (Otolanum AG, priority 2017, published 2020)
Like-named read-outs stand apart in the source and are kept apart here.

Assay: Pharmacokinetic profile after single oral, intranasal and intravenous betahistine in beagle dogs, Example 5
Type: in vivo
Settings: dog; for concentration at 0 h / concentration at 5 min / concentration at 0.167 h / concentration at 0.333 h / concentration at 0.5 h / concentration at 1 h / concentration at 2 h / concentration at 3 h / concentration at 6 h / concentration at 24 h: Betahistine Plasma Concentration
Description: In this study, the pharmacokinetic profile of betahistine was evaluated after a single dose administration of betahistine in male and female beagle dogs (age 5-7 months; weight of 5-11 kg, within a range of 3 kg for each sex) for three routes of administration: oral, intranasal, and intravenous.
On Day 1 of the study, betahistine (BH) was delivered orally at a dose of 12 mg/kg, 24 mg/kg, or 48 mg/kg. Each treatment group comprised 8 animals (4 males and 4 females). For pharmacokinetic assessment, plasma samples were collected prior to dosing, and then at 5, 10, 20 and 30 min, 1, 2, 3, 6, 24 hours after dosing.
On Day 8 of the study, the animals that received oral BH at a dose of 12 mg/kg were administered the test betahistine composition intranasally at a dose of 40 mg betahistine dihydrochloride; the animals that received oral BH at a dose of 24 mg/kg were administered the test betahistine composition intranasally at a dose of 80 mg betahistine dihydrochloride; and the animals that received oral BH at a dose of 48 mg/kg were administered the test betahistine composition intranasally at a dose of 120 mg betahistine dihydrochloride. The test betahistine composition was delivered intranasally in a single dose via an Aptar nasal spray pump device at a total dose level of 40, 80 and 120 mg of betahistine dihydrochloride. Plasma samples were collected prior to dosing, and then at 5, 10, 20 and 30 min, 1, 2, 3, 6, 24 hours after dosing.
On Day 15 of the study, the animals that received oral BH at a dose of 12 mg/kg and the test betahistine composition intranasally at a dose of 40 mg betahistine dihydrochloride were administered a bolus intravenous injection of betahistine at a dose of 0.44 mg/kg. Plasma samples were collected prior to dosing, and then at 5, 10, 20 and 30 min, 1, 2, 3, 6, 24 hours after dosing.
Betahistine 13CD3 dihydrochloride and 2-pyridylacetic acid-D4 hydrochloride were used as respective internal standards. The calibration range for betahistine was 0.05-250 ng/mL and for 2-PAA 2.00-3000 ng/mL using a plasma sample volume of 0.50 mL.
For determination of betahistine, the method involved liquid-liquid extraction, for 2-PAA, the method involved protein precipitation. Plasma samples were prepared for betahistine by extraction under basic conditions with an organic solvent, then the organic phase was dried, reconstituted and transferred for LC/MS-MS analysis. […] Sample analysis was performed using reversed phase chromatography.

[1] = both sexes, beagle, in vivo, iv, 0.44 mg/kg
[2] = both sexes, beagle, in vivo, po, 12 mg/kg
[3] = both sexes, beagle, in vivo, po, 24 mg/kg
[4] = both sexes, beagle, in vivo, po, 48 mg/kg
[5] = female, beagle, in vivo, inhaled or intranasal, 6 mg/kg
[6] = female, beagle, in vivo, inhaled or intranasal, 13 mg/kg
[7] = female, beagle, in vivo, inhaled or intranasal, 17.7 mg/kg
[8] = female, beagle, in vivo, iv, 0.44 mg/kg
[9] = female, beagle, in vivo, po, 12 mg/kg
[10] = female, beagle, in vivo, po, 24 mg/kg

Compound CNCCc1ccccn1 [betahistine] has a Cmax (beagle, in vivo, oral BH 48 mg/kg, male, Day 1, read-out: Cmax) of 102 ± 30.2 ng/mL, a concentration at 0 h [1] of 0.0825 ng/mL and a concentration at 5 min [1] of 50.9 ng/mL. For the same compound, the concentration at 0.167 h [1] was 22 ng/mL, the concentration at 0.333 h [1] was 7.03 ng/mL and the concentration at 0.5 h [1] was 4.82 ng/mL. For the same compound, the concentration at 1 h [1] was 0.308 ng/mL, the concentration at 2 h [1] was 0.633 ng/mL and the concentration at 3 h [1] was 0.0878 ng/mL. The concentration at 6 h [1] was 0.849 ng/mL, the concentration at 24 h [1] was 0.202 ng/mL and the concentration at 0 h [2] was 0 ng/mL. The concentration at 5 min [2] was 1.97 ng/mL, the concentration at 0.167 h [2] was 4.6 ng/mL and the concentration at 0.333 h [2] was 7.96 ng/mL. The concentration at 0.5 h [2] was 13.4 ng/mL, the concentration at 1 h [2] was 9.86 ng/mL and the concentration at 2 h [2] was 0.36 ng/mL. For the same compound, the concentration at 3 h [2] was 0.0181 ng/mL, the concentration at 6 h [2] was 0.00797 ng/mL and the concentration at 24 h [2] was 0.0105 ng/mL. It also gave a concentration at 0 h [3] of 0 ng/mL, a concentration at 5 min [3] of 5 ng/mL and a concentration at 0.167 h [3] of 5.15 ng/mL. For the same compound, the concentration at 0.333 h [3] was 15.5 ng/mL, the concentration at 0.5 h [3] was 14.9 ng/mL and the concentration at 1 h [3] was 31.9 ng/mL. It also gave a concentration at 2 h [3] of 2.83 ng/mL, a concentration at 3 h [3] of 1.16 ng/mL and a concentration at 6 h [3] of 0.21 ng/mL. For the same compound, the concentration at 24 h [3] was 0 ng/mL, the concentration at 0 h [4] was 0 ng/mL and the concentration at 5 min [4] was 12.1 ng/mL. It also gave a concentration at 0.167 h [4] of 22.5 ng/mL, a concentration at 0.333 h [4] of 12.9 ng/mL and a concentration at 0.5 h [4] of 26.5 ng/mL. For the same compound, the concentration at 1 h [4] was 56.5 ng/mL, the concentration at 2 h [4] was 21.5 ng/mL and the concentration at 3 h [4] was 6.57 ng/mL. For the same compound, the concentration at 6 h [4] was 0.439 ng/mL, the concentration at 24 h [4] was 0 ng/mL and the AUC(0-t) (both sexes, beagle, in vivo, IV bolus BH 0.44 mg/kg, sex-combined, Day 15, read-out: AUC(0-t)) was 23 ng·h/mL. The “Absolute Bioavailability (% F), AUC(0-t)/D” value (oral 24 mg/kg vs IV bolus 0.44 mg/kg, sex-combined) was 3.01%, the “AUC(0-t)/D” value [5] was 30.2 ± 9.31 hr*ng/mL/(mg/kg) and the Cmax [5] was 770 ng/mL. The Cmax/D [5] was 128 ± 42.1 ng/mL/(mg/kg), the “Intranasal AUC/dose” value [5] was 30.2 (h · ng/mL)/(mg/kg) and the Tmax [5] was 4.8 min. The AUC(0-t) (female, beagle, in vivo, inhaled or intranasal, 6 mg/kg, AUC(0-6)) was 180 ± 57.3 ng·h/mL, the AUC(0-t) (female, beagle, in vivo, inhaled or intranasal, 6 mg/kg, AUC(0-t)) was 181 ± 55.8 ng·h/mL and the AUC(0-inf) [6] was 480 ± 336 ng·h/mL. The “AUC(0-t)/D” value [6] was 33.8 ± 21.8 hr*ng/mL/(mg/kg), the Cmax [6] was 1790 ng/mL and the Cmax/D [6] was 138 ± 102 ng/mL/(mg/kg). For the same compound, the “Intranasal AUC/dose” value [6] was 33.8 (h · ng/mL)/(mg/kg), the Tmax [6] was 8.4 min and the AUC(0-t) (female, beagle, in vivo, inhaled or intranasal, 13 mg/kg, AUC(0-6)) was 432 ± 281 ng·h/mL. For the same compound, the AUC(0-t) (female, beagle, in vivo, inhaled or intranasal, 13 mg/kg, AUC(0-t)) was 440 ± 283 ng·h/mL, the AUC(0-inf) [7] was 302 ng·h/mL and the “AUC(0-t)/D” value [7] was 16.4 ± 0.479 hr*ng/mL/(mg/kg). For the same compound, the Cmax [7] was 1330 ng/mL, the Cmax/D [7] was 75.1 ± 17.0 ng/mL/(mg/kg) and the “Intranasal AUC/dose” value [7] was 16.4 (h · ng/mL)/(mg/kg). For the same compound, the Tmax [7] was 4.8 min, the AUC(0-t) (female, beagle, in vivo, inhaled or intranasal, 17.7 mg/kg, AUC(0-6)) was 277 ± 7.99 ng·h/mL and the AUC(0-t) (female, beagle, in vivo, inhaled or intranasal, 17.7 mg/kg, AUC(0-t)) was 290 ± 8.47 ng·h/mL. For the same compound, the AUC(0-inf) [8] was 14.3 ng·h/mL, the “AUC(0-t)/D” value [8] was 60.3 ± 40.0 hr*ng/mL/(mg/kg) and the Cmax [8] was 43.7 ng/mL. The Cmax/D [8] was 99.3 ng/mL/(mg/kg), the Tmax [8] was 5.4 min and the Vd [8] was 10.6 L/kg. It also gave a clearance [8] of 513 mL/min/kg, a half-life [8] of 14.3 min and an AUC(0-t) (female, beagle, in vivo, iv, 0.44 mg/kg, AUC(0-6)) of 16.3 ng·h/mL. The AUC(0-t) (female, beagle, in vivo, iv, 0.44 mg/kg, AUC(0-t)) was 26.5 ng·h/mL, the concentration at 0 h [8] was 0.0551 ng/mL and the concentration at 5 min [8] was 43.7 ng/mL. It also gave a concentration at 0.167 h [8] of 14.8 ng/mL, a concentration at 0.333 h [8] of 6 ng/mL and a concentration at 0.5 h [8] of 4.06 ng/mL. The concentration at 1 h [8] was 0.268 ng/mL, the concentration at 2 h [8] was 0.274 ng/mL and the concentration at 3 h [8] was 0.095 ng/mL. For the same compound, the concentration at 6 h [8] was 0.648 ng/mL, the concentration at 24 h [8] was 0.405 ng/mL and the “AUC(0-6)/D” value [9] was 1.33 ± 0.483 hr*ng/mL/(mg/kg). The Cmax [9] was 14.7 ± 4.56 ng/mL, the Cmax/D [9] was 1.22 ± 0.380 ng/mL/(mg/kg) and the “Oral AUC/dose” value [9] was 1.33 (h · ng/mL)/(mg/kg). For the same compound, the Tmax [9] was 60 min, the AUC(0-t) (female, beagle, in vivo, po, 12 mg/kg, AUC(0-t)) was 15.9 ± 5.8 ng·h/mL and the concentration at 0 h [9] was 0 ng/mL. The concentration at 5 min [9] was 2.59 ng/mL, the concentration at 0.167 h [9] was 6.46 ng/mL and the concentration at 0.333 h [9] was 10.1 ng/mL. For the same compound, the concentration at 0.5 h [9] was 7.8 ng/mL, the concentration at 1 h [9] was 14.1 ng/mL and the concentration at 2 h [9] was 0.263 ng/mL. The concentration at 3 h [9] was 0 ng/mL, the concentration at 6 h [9] was 0 ng/mL and the concentration at 24 h [9] was 0 ng/mL. The “AUC(0-6)/D” value [10] was 1.71 ± 0.748 hr*ng/mL/(mg/kg), the AUC(0-inf) [10] was 27.7 ng·h/mL and the Cmax [10] was 38 ± 26.1 ng/mL. For the same compound, the Cmax/D [10] was 1.58 ± 1.09 ng/mL/(mg/kg), the “Oral AUC/dose” value [10] was 1.71 (h · ng/mL)/(mg/kg) and the Tmax [10] was 60 min. The half-life [10] was 84.6 min, the AUC(0-t) (female, beagle, in vivo, po, 24 mg/kg, AUC(0-6)) was 26.2 ng·h/mL and the AUC(0-t) (female, beagle, in vivo, po, 24 mg/kg, AUC(0-t)) was 41 ± 17.9 ng·h/mL. The concentration at 0 h [10] was 0 ng/mL, the concentration at 5 min [10] was 5.32 ng/mL and the concentration at 0.167 h [10] was 5.24 ng/mL. It also gave a concentration at 0.333 h [10] of 7.13 ng/mL, a concentration at 0.5 h [10] of 12 ng/mL and a concentration at 1 h [10] of 36.8 ng/mL. It also gave a concentration at 2 h [10] of 3.58 ng/mL and a concentration at 3 h [10] of 1.71 ng/mL.
